In PubChem BioAssay (NCI) one finds TGI data, which are given here for 2 compounds.

Holding throughout (assay): NCI tumour cell line growth inhibition, 48 h
In assay [1] the test system is ACHN renal.
Assay [2] deals with HS 578T breast.
Assay [3] relates to SR leukemia.
The subject of assay [4] is DLD-1 colon.
In assay [5] the test system is DMS 114 small cell lung.
Assay [6] has as its system DMS 273 small cell lung.
Assay [7] deals with HOP-18 NSCLC.
Assay [8] has as its system P388/ADR leukemia.
Assay [9] relates to XF 498 CNS.

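Exposure lasted 48 hours, with cells grown in 96-well plates and compounds tested at five concentrations. TGI marks complete inhibition of growth.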 Some results are limits rather than exact numbers.

On to `CCCCOP(C)(=O)C(NC(=O)OCC)(C(F)(F)F)C(F)(F)F` (centres undefined), for which the TGI in assay [1], in assay [2] and in assay [3] was over 100 µM in each case.

`C=C1C(=O)OC2CC(C)C3C4OC4C(O)C3(C)C(O)C12` (centres undefined): the TGI in assay [4] was 87.8 µM; in [5] it was 45.9 µM; in assay [6], 67.2 µM; in [7], 72.4 µM; in assay [8] it was 49.3 µM; in [9] it was 47.4 µM.
